Source: article PMC10419185 (International Journal of Molecular Sciences, 2023)
Where a name gives a salt, the structure may show the parent alone. Read-outs that look alike come from different tables or passages of the source.

Assays:
[1] = system: 263K scrapie-infected hamster cerebellar tissue slices; type: cell-based, golden hamster; conditions: for PrPSc levels, comparison of c-Abl tyrosine kinase inhibitors: 10 and 20 μM for 5 weeks (Supplementary Figure S3)
scrapie-infected mice = conditions: cited from earlier work
[2] = system: RML-infected hemizygous Tg37+/- mice; conditions: mouse, in vivo; cited from earlier work
263K scrapie strain [3] = type: in vivo, golden hamster
[4] = mouse, in vivo; cited from earlier work
[5] = system: ZW13-2, ZW13-2-22L and ZW13-2-139A cells
ZW13-2-22L cells = type: cell-based, mouse
ZW13-2-139A cells = type: cell-based, mouse
in vivo = conditions: male, hamster; for Kp: B/P ratio (%); for Tmax / half-life: po; for half-life: T1/2
[6] = system: 22L scrapie-infected Tga20 cerebellar tissue slices; type: cell-based, Tga20 mouse; conditions: 25 μM, slices cultured for 3 or 5 weeks
263K scrapie strain [7] = type: in vivo, golden hamster; conditions: 100 mg/kg IG
[8] = hamster, in vivo; for T1/2: male, golden

In the case of `Cc1ccc(NC(=O)c2ccc(CN3CCN(C)CC3)cc2)cc1Nc1nccc(-c2cccnc2)n1` [imatinib, imatinib mesylate], the “PrPSc levels, comparison of c-Abl tyrosine kinase inhibitors” value [1] is given as “had no effect” and the “survival times of scrapie-infected mice” value (scrapie-infected mice) is given as “prolongs the survival times of scrapie-infected mice”.
In the case of `O=c1n(CCCN2CCN(c3cccc(Cl)c3)CC2)nc2ccccn12` [trazodone hydrochloride], the survival [2] is listed as “significantly prolong survival without reducing the PrP^Sc levels”.
With `Cc1cn(-c2cc(NC(=O)c3ccc(C)c(Nc4nccc(-c5cnccn5)n4)c3)cc(C(F)(F)F)c2)cn1` [radotinib, Radotinib hydrochloride] the PrPSc propagation ([1]; 0–40 μM for 5 weeks) was “reduced PrP^Sc propagation in 263K scrapie-infected hamster cerebellar tissue slices in a dose-dependent manner”, the “PrPSc propagation, treatment in the final 2 weeks” value ([1]; 10 μM, final 2 weeks of 5-week culture) was “effectively inhibited PrP^Sc propagation” and the “PrPSc propagation, one week of treatment” value ([1]; 10 μM, final one week of 5-week culture) was “did not reduce PrP^Sc propagation”. For the same molecule, the “PrPSc levels, comparison of c-Abl tyrosine kinase inhibitors” value [1] was “reduced PrP^Sc accumulation”, the “levels of PrPSc, later treatment” value ([1]; 10–40 μM, 2 weeks without drug then final 3 weeks with radotinib) was “dramatically reduced the levels of PrP^Sc” and the “survival time, range” value (263K scrapie strain [3]; 30 mg/kg IG, n = 8) was 140–154 dpi. The mean survival time (263K scrapie strain [3]; 30 mg/kg IG, n = 8, p = 0.05848) was 145.1 ± 5.3 dpi, the “survival time, range” value (263K scrapie strain [3]; 60 mg/kg IG, n = 8) was 112–208 dpi and the mean survival time (263K scrapie strain [3]; 60 mg/kg IG, n = 8, p = 0.03022) was 161.0 ± 34.8 dpi. The survival time (263K scrapie strain [3]; 100 mg/kg IG for the initial 10 weeks (10W-initial), n = 10, p = 0.0446) was 149.6 ± 25.3 dpi, the “survival time, range” value (263K scrapie strain [3]; 100 mg/kg IG for the initial 10 weeks, n = 10) was 112–191 dpi and the “survival time, range” value (263K scrapie strain [3]; 100 mg/kg IG once a day, 6 days a week, n = 12) was 124–223 dpi. For the same molecule, the survival time (263K scrapie strain [3]; 100 mg/kg IG once a day, 6 days a week, n = 12, p = 0.00217 vs vehicle (135.1 ± 9.9)) was 159.3 ± 28.6 dpi, the mean survival time (263K scrapie strain [3]; 100 mg/kg IG started 4 weeks postinoculation (4W-post), n = 9, p = 0.02333) was 158.0 ± 31.9 dpi and the “survival time, range” value (263K scrapie strain [3]; 100 mg/kg IG started 4 weeks postinoculation, n = 9) was 126–210 dpi. For the same molecule, the mean survival time (263K scrapie strain [3]; 100 mg/kg IG started 8 weeks postinoculation (8W-post), n = 9, p = 0.08559) was 146.9 ± 23.7 dpi, the “survival time, range” value (263K scrapie strain [3]; 100 mg/kg IG started 8 weeks postinoculation, n = 9) was 114–181 dpi and the “survival times (abstract)” value (263K scrapie strain [3]; 100 mg/kg intragastrically, nontreated 135 ± 9.9 days) was 159 ± 28.6 days. The “survival time, range” value (263K scrapie strain [3]; 200 mg/kg IG, n = 8) was 112–210 dpi, the mean survival time (263K scrapie strain [3]; 200 mg/kg IG, n = 8, p = 0.01944) was 157.0 ± 33.9 dpi and the survival time (263K scrapie strain [3]; intraperitoneal route, 10 mg/kg/day 6 days a week, n = 6, no significant difference) was 155 ± 50 dpi. The “blood–brain barrier crossing” value [4] was “effectively crosses the blood–brain barrier”, the cell viability [5] was “No decrease in viability” and the PrPSc levels (ZW13-2-22L cells) was “mild reduction in PrP^Sc levels”. For the same molecule, the PrPSc levels (ZW13-2-139A cells) was “mild reduction in PrP^Sc levels”, the Kp (in vivo; golden, 60 mg/kg, AUClast) was 0.137 ± 0.021 and the Kp (in vivo; golden, 60 mg/kg, Cmax) was 0.137 ± 0.023. The Kp (in vivo; golden, 100 mg/kg, AUClast) was 0.232 ± 0.155, the Kp (in vivo; golden, 100 mg/kg, Cmax) was 0.149 ± 0.014 and the Tmax (in vivo; golden, 60 mg/kg) was 6 h. It also gave a Tmax (in vivo; golden, 100 mg/kg) of 6 h, a half-life (in vivo; golden, 100 mg/kg) of 198 min and a Kp (in vivo; 60 mg/kg, AUClast) of 0.137 ± 0.021. The Kp (in vivo; 100 mg/kg, AUClast) was 0.232 ± 0.155, the PrPSc propagation [6] was “reduced PrP^Sc propagation” and the “PrPSc levels in the brains, Western blot” value (263K scrapie strain [7]; hamsters sacrificed at 146 dpi) was “markedly decreased”. For the same molecule, the “PrPSc levels in the brains, Western blot” value (263K scrapie strain [7]; hamsters that died naturally) was “also high”, the “total PrP and PK-resistant PrPSc levels in the brains, immunohistochemical staining” value (263K scrapie strain [7]; sacrificed on 146 dpi, compared to control-treated infected hamsters) was “definitely lower” and the “blood–brain barrier crossing in hamsters” value [8] was “effectively crosses the BBB in hamsters”. The “Tmax Median (range, h)” value ([8]; po, 100 mg/kg) was 6.0 ± 1.15 (6.0–8.0) h.
For `Cc1cn(-c2cc(NC(=O)c3ccc(C)c(Nc4nccc(-c5cccnc5)n4)c3)cc(C(F)(F)F)c2)cn1` [nilotinib, nilotinib hydrochloride monohydrate], the “PrPSc levels, comparison of c-Abl tyrosine kinase inhibitors” value [1] was “reduced PrP^Sc levels”, the half-life (in vivo; golden, 60 mg/kg) was 60 ± 24 min and the half-life (in vivo; golden, 100 mg/kg) was 72 ± 12 min. For the same molecule, the T1/2 ([8]; po, 60 mg/kg) was 1.4 ± 0.3 h and the T1/2 ([8]; po, 100 mg/kg) was 1.4 ± 0.7 h.
For `O=C(CC(=O)c1ccccc1)c1ccccc1` [dibenzoylmethane], the survival [2] is listed as “significantly prolong survival without reducing the PrP^Sc levels”.
